Laboratory results published in patent publication US20190284192A1, “NITROGENOUS MACROCYCLIC COMPOUND, PREPARATION METHOD THEREFOR, PHARMACEUTICAL COMPOSITION AND APPLICATION THEREOF” (LUOXIN PHARMACEUTICAL (SHANGHAI) CO., LTD., priority 2016, published 2019).
Where “and” joins values, the source holds several entries; their conditions need not be identical. Equal entries are not always repeated. Where two headings read alike, the source gives them in different places.

What was measured:
[1] = Cassette pharmacokinetic study, intravenous or oral administration; format: in vivo, female Balb/c nude mice; design: Cmax: unit not given here; details: for F: PO 2 mg/kg vs IV 0.5 mg/kg; for AUC(0-inf) / AUC(0-t) / MRT inf / clearance / half-life / Vd / Tmax: female, Balb/c nude, mouse, whole blood; for AUC(0-inf) / AUC(0-t) / MRT inf / clearance / half-life / Vd / Tmax / Cmax: N = 3, cassette; for half-life: read-out: Terminal t1/2 (converted); for Vd: read-out: Vss
Experimental: Determinations of the pharmacokinetic parameters of ABBV-075 (standard control), 4009, 4018, 4026 and 4031 in femal Balb/c nude mice after intravenous or oral administration.
Detailed Experimental Steps:
6 female Balb/c nude mice weighing 18-20 g were divided into two groups (3/group), after fixation, the intravenous group: 0.5 mg/kg (5 mL/kg) injected by caudal vein (N=3); the oral group: 2 mg/kg (10 mL/kg) by intragastic administration (N=3). Approximately 20 μL of blood was drawn behind the eyeball at the sampling point and placed in EDTA-2K tube. The sample was immediately diluted with 40 μL of double distilled water and vortexed until well mixed. Blood samples were stored at approximately −70° C. and submitted to the BA group for analysis (LC/MS). 30 μL of blood sample was added with 200 μL of H2O and 30 μL of IS dexamethasone, 200 ng/mL), layered by LLE, and 1 mL of MTBW was added as an organic extraction solvent. The mixture was vortexed for 10 min and centrifuged at 10,000 rpm for 5 min. 850 μL of the supernatant was evaporated under nitrogen until desiccated. The desiccated extract was re-mixed with 150 μL of 50% methanol, vortexed for 2 min, and then analyzed by injecting 5 μL of the supernatant into LC-MS/MS.
2. Intravenous/oral administration formula: 5% DMSO, 95% (10% HP-3-CD in water)
3. PK calculation parameter used non-compartment model, WinNonlin 6.4 software calculation

[2] = test system: MV-4-11 subcutaneous xenograft tumor; assay: Anti-tumor efficacy in vivo, MV-4-11 subcutaneous xenograft model; design: species or system BALB/c nude mice; details: for anti-tumor effect on the MV-4-11 cell xenograft tumor mouse model: ABBV-075 3 mg/kg, GSK762 15 mg/kg, 4009 10 mg/kg; for anti-tumor effect on the MV-4-11 cell xenograft tumor mouse model / T/C % / Average tumor weight, 15th day of treatement / Average tumor volume, Treatement starts 1st day / Tumor volume TGI (%) 4th day / Tumor volume TGI (%) 6th day / Tumor volume TGI (%) 8th day / Tumor volume TGI (%) 11th day / Tumor volume TGI (%) 13th day / Tumor volume TGI (%) 15th day / Average tumor volume, Treatement ends 15th day: intragastric QD*14; for T/C %: TRTV/CRTV; for T/C % / P, tumor volume difference between the control group and the administrated group / Average tumor weight, 15th day of treatement / Average tumor volume, Treatement starts 1st day / Tumor volume TGI (%) 4th day / Tumor volume TGI (%) 6th day / Tumor volume TGI (%) 8th day / Tumor volume TGI (%) 11th day / Tumor volume TGI (%) 13th day / Tumor volume TGI (%) 15th day / Average tumor volume, Treatement ends 15th day: ABBV-075 3, GSK762 15, 4009 10 mg/kg; for T/C % / Tumor volume TGI (%) 15th day / Average tumor volume, Treatement ends 15th day: 15th day; for P, tumor volume difference between the control group and the administrated group: Two-way Anova Bonferroni post-test; for Average tumor volume, Treatement ends 15th day: 10 mg/kg
Experimental: Experimental protocol: 0.2 mL of cell suspension containing about 5×10^MV-4-11 cells (cell suspended in IMDM medium and added with 50% Matrigel) was inoculated subcutaneously into the right back of each mouse. Group administration was initiated when the average tumor volume reached approximately 136.94 mm^3 (day 15 post inoculation). Grouping method: Animals were weighed before dosing and tumor volume was measured. Grouping designed based on tumor volume.
The experimental indicator is to investigate whether tumor growth can be inhibited, delayed or cured. Tumor diameters were measured with vernier calipers three times a week. The formula for calculating tumor volume is: V=0.5×a×b^2, a and b represent the long and short diameters of the tumor, respectively. The antitumor effect of the compound was evaluated by T/C (%). T/C %=TRTV/CRTV×100% (TRTV: treatment group RTV; CRTV: negative comparative group RTV). The relative tumor volume RTV is calculated as RTV=Vt/V1. Where V1 is the measured tumor volume at the time of group administration (i.e., Day 1), and Vt is the tumor volume at each measurement.
The tumor volume and tumor size were analysed by statistical software. GraphPad Prism software was used for analyzation, p<0.05 is considered to have significant difference, p<0.01 is considered to have extremely significant difference.
Two-way Anova Bonferroni post-test is used to compare the tumor volume difference between the control group and the treatment group.

[3] = Body weight of MV-4-11 tumor-bearing mice during treatment; format: in vivo; details: for Average RCBW, Treatment end Day 15: relative body weight change vs Day 1; for Average RCBW, Treatment end Day 15 / Average body weight, Treatment end Day 15 / Average body weight, Treatment start Day 1: intragastric QD*14, ABBV-075 3, GSK762 15, 4009 10 mg/kg; for Average body weight, Treatment end Day 15 / Average body weight, Treatment start Day 1: x ± SEM
Experimental: The preparation and any revision of this experimental protocol are carried out in accordance with the evaluation criteria of the “Institute for Animal Care and Use (IACUC)” of Shanghai Chempartner Chemical Research Co., Ltd. The use and welfare of laboratory animals are carried out in accordance with the provisions of the Association for Assessment and Accreditation of Laboratory Animal Care (AAALAC). Animals are monitored daily for health and death. Routine examinations include observations of the effects of the test substance and the drug on the daily behavior of the animal such as behavioral activities, intake of water and feeds, weight change (three weights measured weekly), appearance signs or other anormal circumstance. The number of animal deaths and side effects in the group were recorded based on the number of animals in each group.

[4] = test system: MYC mRNA expression in MV-4-11 xenograft tumor; assay: PKPD of compound 4009 in MV-4-11 subcutaneous xenograft (MYC mRNA by RT-qPCR); format: in vivo, BALB/c nude mice; details: 15 mg/kg single dose intragastric; 1, 2, 4, 6, 8, 24 h
Experimental: Cell Culture MV-4-11 (purchased from ATCC, CRL-9591) cells were single-layer-cultured in vitro, culture condition is IMDM medium supplemented with 10% heat-inactivated fetal bovine serum and 1% penicillin-streptomycin double antibody, at 37° C., 5% CO2. According to the growth of the cells, the treatment was passaged twice a week. When the cells are in the exponential growth phase, the cells are collected, counted, and inoculated.
Experimental protocol: 0.2 mL of cell suspension containing about […] cells (cell suspended in IMDM medium and added with 50% Matrigel) was inoculated subcutaneously into the right back of each mouse. […] Grouping method: animals were weighed before dosing and tumor volume was measured. […]
Preparation of cDNA: The concentration of RNA (NanaDrop2000) was determined, 2 μg RNA was used as a template for reverse transcription, and cDNA preparation (RT-PCR) was performed using a High Capacity cDNA Reverse Transcription Kit.
Quantitative amplification of the target gene: Real-time qPCR amplification was performed using TaqMan fluorescent probe and cDNA as a template. […] The reaction system was separately added to a 384-well plate, and each sample of the target gene and the comparative gene was measured for three replicate wells, and the reaction was run on a prepared 384-well plate instrument (ABI ViiA7).

Structure (SMILES) | F [1] [%] | AUC(0-inf) ([1]; IV 0.5 mg/kg) [ng·h/mL] | AUC(0-t) ([1]; IV 0.5 mg/kg) [ng·h/mL] | MRT inf ([1]; IV 0.5 mg/kg) [h] | clearance ([1]; IV 0.5 mg/kg) [mL/min/kg] | half-life ([1]; IV 0.5 mg/kg) [h] | Vd ([1]; IV 0.5 mg/kg) [L/kg] | AUC(0-inf) ([1]; PO 2 mg/kg) [ng·h/mL] | AUC(0-t) ([1]; PO 2 mg/kg) [ng·h/mL] | Tmax ([1]; PO 2 mg/kg) [h] | half-life ([1]; PO 2 mg/kg) [h] | anti-tumor effect on the MV-4-11 cell xenograft tumor mouse model [2] | T/C % [2] [%] | P, tumor volume difference between the control group and the administrated group ([2]; day 1 after administration) | P, tumor volume difference between the control group and the administrated group ([2]; day 4 after administration) | P, tumor volume difference between the control group and the administrated group ([2]; day 6 after administration) | P, tumor volume difference between the control group and the administrated group ([2]; day 8 after administration) | P, tumor volume difference between the control group and the administrated group ([2]; day 11 after administration) | P, tumor volume difference between the control group and the administrated group ([2]; day 13 after administration) | P, tumor volume difference between the control group and the administrated group ([2]; day 15 after administration) | other results
CCS(=O)(=O)Nc1ccc(Oc2ccc(F)cc2F)c(-c2cn(C)c(=O)c3[nH]ccc23)c1 [ABBV-075] | 62.5 | 510 | 457 | 3.1 | 16.4 | 2.8 | 3.06 | 1680 | 1140 | 1 | 4.56 | significant anti-tumor effect | 34.24 | P > 0.05 | P > 0.05 | P > 0.05 | P > 0.05 | P < 0.01 (***) | P < 0.01 (***) | P < 0.01 (***) | Average tumor weight, 15th day of treatement [2]: 0.314 ± 0.05 g; Average tumor volume, Treatement starts 1st day [2]: 136.45 ± 14.05 mm^3; Tumor volume TGI (%) 4th day [2]: 97.12%; Tumor volume TGI (%) 6th day [2]: 69.45%; Tumor volume TGI (%) 8th day [2]: 73.8%; Tumor volume TGI (%) 11th day [2]: 72.41%; Tumor volume TGI (%) 13th day [2]: 75.81%; Tumor volume TGI (%) 15th day [2]: 75.56%; Average tumor volume, Treatement ends 15th day [2]: 346.72 mm^3 and 346.72 ± 68.96 mm^3; Average RCBW, Treatment end Day 15 [3]: 2.72%; Average body weight, Treatment end Day 15 [3]: 21.95 ± 0.36 g; Average body weight, Treatment start Day 1 [3]: 21.36 ± 0.21 g
CCS(=O)(=O)Cc1ccc2c(c1)-c1cn(C)c(=O)cc1CN=C2c1ccc(F)cc1 [Compound 4009, 7-(4-fluorophenyl)-2-methyl-10-(ethylsulfonemethyl)-2H-benzo[c]pyrido[3,4-e]azepin-3(5H)-ketone] | 99.7 | 590 | 575 | 1.61 | 14.2 | 1.69 | 1.38 | 2350 | 2250 | 0.667 | 4.21 | significant anti-tumor effect | 30.13 | P > 0.05 | P > 0.05 | P > 0.05 | P > 0.05 | P < 0.001 (***) | P < 0.001 (***) | P < 0.001 (***) | Cmax ([1]; PO 2 mg/kg): 742; inhibition of the expression level of MYC mRNA in the tumor versus concentration of the drug in the tumor [4]: good correlation; Average tumor weight, 15th day of treatement [2]: 0.276 ± 0.08 g; Average tumor volume, Treatement starts 1st day [2]: 136.78 ± 14.97 mm^3; Tumor volume TGI (%) 4th day [2]: 81.27%; Tumor volume TGI (%) 6th day [2]: 75.63%; Tumor volume TGI (%) 8th day [2]: 79.64%; Tumor volume TGI (%) 11th day [2]: 83.17%; Tumor volume TGI (%) 13th day [2]: 81.77%; Tumor volume TGI (%) 15th day [2]: 81.16%; Average tumor volume, Treatement ends 15th day [2]: 305.80 mm^3 and 305.80 ± 81.48 mm^3; body weight and condition of mice during the entire administration period ([3]; 4009 10 mg/kg intragastric QD*14): did not decrease in body weight; Average RCBW, Treatment end Day 15 [3]: 2.82%; Average body weight, Treatment end Day 15 [3]: 21.88 ± 0.73 g; Average body weight, Treatment start Day 1 [3]: 21.26 ± 0.38 g
CCS(=O)(=O)Cc1ccc2c(c1)-c1cn(C)c(=O)cc1[C@H](C)N=C2c1ccc(F)cc1 [Compound 4026, (S)-10-((ethylsulfone)methyl)-7-(4-fluorophenyl)-2,5-dimethyl-2,5-dihydro-3H-benzo[c]pyrido[3,4-e]azepin-3-ketone] | 89.5 | 1140 | 1100 | 3.21 | 7.5 | 2.85 | 1.43 | 4050 | 3740 | 0.5 | 4.35 | – | – | – | – | – | – | – | – | – | Cmax ([1]; PO 2 mg/kg): 1082
